Experiments:
[1] = chickens, previous work; cited from earlier work
[2] = test system: zebra finch (Taeniopygia guttata); test: Example 2: disruption of ovulation, oviposition and embryo development after injection, zebra finches; format: in vivo; conditions: 20 ug injection, relative to control and uninjected groups
Method: (§1) Zebra finch (Taeniopygia guttata) pairs obtained from a breeding colony maintained at The University of Georgia were housed in individual cages and provided feed and water ad libidumn. Birds were kept under a 14 hour (h) light (L):10 h dark (D) light schedule. Egg-laying was monitored daily and eggs marked to record sequence order. Females were injected intraperitoneally after the first or second egg of the clutch was laid with one of three treatments: 20 μg of CORT dissolved in 50 μl peanut oil and 10% ethanol (CORT), 20 μg of progesterone dissolved in […] and 10% ethanol (P), or 50 μl of control peanut oil (C). A fourth set of females received no injection treatment (UN). […] The follicle ovulating 5 hours after injection, was laid approximately 36 hours after injection (FIG. 3). Ovulating follicles exposed to treatments were laid as the 3rd or 4th egg in the sequence (3rd egg if treatment was administered on the day the 1st egg was laid and the 4th egg in the sequence if treatment was administered on the day the 2nd egg was laid). Eggs were allowed to incubate in the nest for 8-12 days prior to collection to allow sufficient embryonic development for DNA extraction and molecular sexing analyses. Occasionally these treatments disrupted the oviposition immediately following the injection. Females that delayed oviposition after treatment were excluded from analysis because it was not possible to determine whether the egg collected the following day was from the ovulation event that occurred immediately following injection or from a delayed oviposition of the follicle ovulated the day prior to injection. Females that delayed oviposition were allowed to complete the clutch after which the treatment was repeated during the next clutch. […] Only 1/10 females treated with progesterone laid successfully. For this reason, progesterone treatments were eliminated from further analyses.

[3] = test system: zebra finch (Taeniopygia guttata); test: Example 1: offspring sex after a single maternal CORT injection at sex chromosome segregation, zebra finches; format: in vivo; conditions: 20 ug CORT about 19 h after first egg, third egg of sequence, control injected 46%
Method: This experiment was conducted to determine whether a single injection of CORT at the critical time of sex chromosome segregation is sufficient to skew offspring sex ratios towards females. Female zebra finches were monitored for signs of nest-building and egg-laying. Approximately 19 h following the appearance of the first egg (1 h before sex chromosome segregation), females received one of two treatments: (1) a high dose of CORT (20 ug in 50 ul peanut oil), or (2) a control treatment (50 ul peanut oil). Because oviposition and ovulation are nearly concurrent, ovulation of the second egg took place when the first egg was laid. Thus, the egg that would be affected by our treatment was the third egg in the sequence. Eggs were labeled as they were laid and were collected after 6 d of incubation for molecular sexing analysis as described above. The percentage of females producing male offspring in each group were calculated and compared using chi square analyses. Blood samples were taken from a subset of females 1 h and 2.5 h post injection to verify that the CORT injection did, in fact, elevate circulating maternal CORT concentrations. CORT was quantified using a standard radioimmunoassay and CORT concentrations were log transformed and analyzed using an analysis of variance (ANOVA).

[4] = test system: zebra finch (Taeniopygia guttata); test: Example 2: primary sex ratio after hormone injection five hours before ovulation, zebra finches; format: in vivo
Method: as §1
Molecular Sexing. Genomic DNA was extracted from embryonic tissue using a standard salt extraction method (Lambert et al., 2000, Journal of Neuroscience Methods; 95:127-132). Portions of the W-linked avian CHD (CHD-W) on females and its non W-linked homologue (CHD-Z) were amplified using polymerase chain reaction (PCR) with primers P2 and P8 (Griffiths et al., 1998, Mol Ecol; 7:1071-1075). […] The presence of the W chromosome was determined through the visualization of two bands while males were identified when only one band was produced.
Twenty-one target embryos were successfully sexed from control females, 16 from non-injected females, and 18 from CORT treated females. […] Differences in the number of females that produced males was analyzed among treatment groups by performing a logistic regression in StatView (SAS Institute, Cary, N.C. USA) using sex as the response variable (male=1). […]

C[C@]12C[C@H](O)[C@H]3[C@@H](CCC4=CC(=O)CC[C@@]43C)[C@@H]1CC[C@@H]2C(=O)CO [corticosterone]
duration of elevated CORT concentrations following injection [1]: approximately 90 minutes | effect on oviposition, ovulation or visible development ([2]; listed as CORT): not more likely to occur | effect on oviposition, ovulation or visible development ([2]; listed as Corticosterone): did not adversely affect oviposition or ovulation | eggs that were male (primary sex ratio) [3]: 71% | males produced (primary sex ratio) ([4]; 20 ug intraperitoneally five hours before ovulation, 3rd or 4th egg, control injected 61.9%, uninjected 37.5%): 72% | male embryos produced compared to non-manipulated females (FIG. 5 legend) ([4]; 20 ug, no significant difference from control injected females): produced significantly more male embryos | Proportion male ([4]; eggs laid before treatment by the same treatment group (baseline)): 0.4375 | Proportion male ([4]; target eggs (Treatment), 20 ug): 0.72

From patent US8889662B2, “Method to alter sex ratios in avian offspring” (University of Georgia Research Foundation, Inc., priority 2009, dated 2014)
